The compounds below were run on HEK293 (assay: Inhibitory activity against GnRH (5 nM) stimulated [Ca2+] release in transfected cells). Settings: Homo sapiens.
Format: functional, cell-based

**Q.** Cc1c(-c2ccccc2F)c(=O)n(C[C@H](N)c2ccccc2)c(=O)n1Cc1c(F)cccc1Cl was tested. Which IC50 did it give?
**A.** 0.0028 µM

What follows are compounds tested against T1, Gonadotropin-releasing hormone receptor (Homo sapiens, UniProt P30968) (assay: Binding affinity towards human gonadotropin-releasing hormone receptor expressed in HEK293 cells using des-Gly10-[125I]Tyr,5 DLeu,6 NMeLeu,7 Pro9-NEt GnRH as radioligand.). Settings: not given.
T1 sequence (P30968 whole entry): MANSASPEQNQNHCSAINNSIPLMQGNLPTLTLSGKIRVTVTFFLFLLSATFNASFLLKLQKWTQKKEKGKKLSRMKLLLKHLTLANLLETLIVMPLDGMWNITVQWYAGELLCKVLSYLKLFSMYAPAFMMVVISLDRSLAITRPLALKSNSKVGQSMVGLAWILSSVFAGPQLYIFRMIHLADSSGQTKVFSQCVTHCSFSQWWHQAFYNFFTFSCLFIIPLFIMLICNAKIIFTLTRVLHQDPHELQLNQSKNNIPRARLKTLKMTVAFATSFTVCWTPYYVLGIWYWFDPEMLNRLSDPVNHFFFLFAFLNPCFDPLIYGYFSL
Format: cell-based

**Q.** For Cc1c(-c2ccccc2F)c(=O)n(C[C@H](N)c2ccccc2)c(=O)n1CCO, which Ki is on record?
**A.** > 10 µM

**Q.** How did the Ki turn out when CCCCCn1c(C)c(-c2ccccc2F)c(=O)n(C[C@H](N)c2ccccc2)c1=O was run?
**A.** 0.23 µM

**Q.** Cc1c(-c2ccccc2F)c(=O)n(C[C@H](N)c2ccccc2)c(=O)n1Cc1ccccc1C(F)(F)F was tested. Which Ki did it give?
**A.** 0.004 µM

**Q.** With Cc1c(-c2ccccc2F)c(=O)n(C[C@H](N)c2ccccc2)c(=O)n1CCc1ccccn1 as the compound, how does the Ki read?
**A.** > 10 µM

**Q.** Which Ki does the source give for Cc1c(-c2ccccc2F)c(=O)n(C[C@H](N)c2ccccc2)c(=O)n1C1CCCCC1 here?
**A.** 0.26 µM

**Q.** For Cc1c(-c2ccccc2F)c(=O)n(C[C@H](N)c2ccccc2)c(=O)n1Cc1cccc(F)c1, which Ki is on record?
**A.** 0.067 µM

**Q.** For Cc1c(-c2ccccc2F)c(=O)n(C[C@H](N)c2ccccc2)c(=O)n1Cc1ccccn1, which Ki is on record?
**A.** 0.077 µM

**Q.** Cc1c(-c2ccccc2F)c(=O)n(C[C@H](N)c2ccccc2)c(=O)n1Cc1c(F)cccc1F was tested. Which Ki did it give?
**A.** 0.006 µM

**Q.** How did the Ki turn out when Cc1c(-c2ccccc2F)c(=O)n(C[C@H](N)c2ccccc2)c(=O)n1CCN1CCNCC1 was run?
**A.** > 10 µM

**Q.** How did the Ki turn out when COc1ccccc1Cn1c(C)c(-c2ccccc2F)c(=O)n(C[C@H](N)c2ccccc2)c1=O was run?
**A.** 0.23 µM

**Q.** For Cc1c(-c2ccccc2F)c(=O)n(C[C@H](N)c2ccccc2)c(=O)n1C(C)c1ccccc1 (some centres not stated), which Ki is on record?
**A.** 0.14 µM

**Q.** How did the Ki turn out when Cc1c(-c2ccccc2F)c(=O)n(C[C@H](N)c2ccccc2)c(=O)n1Cc1ccccc1 was run?
**A.** 0.057 µM

**Q.** Which Ki does the source give for Cc1c(-c2ccccc2F)c(=O)n(C[C@H](N)c2ccccc2)c(=O)n1Cc1cccnc1 here?
**A.** 0.7 µM

**Q.** How did the Ki turn out when Cc1c(-c2ccccc2F)c(=O)n(C[C@H](N)c2ccccc2)c(=O)n1CC1CCCCC1 was run?
**A.** 0.2 µM

**Q.** For Cc1c(-c2ccccc2F)c(=O)n(C[C@H](N)c2ccccc2)c(=O)n1CCc1ccccc1, which Ki is on record?
**A.** 1 µM

**Q.** How did the Ki turn out when Cc1ccc(Cn2c(C)c(-c3ccccc3F)c(=O)n(C[C@H](N)c3ccccc3)c2=O)o1 was run?
**A.** 0.43 µM

**Q.** How did the Ki turn out when COCCn1c(C)c(-c2ccccc2F)c(=O)n(C[C@H](N)c2ccccc2)c1=O was run?
**A.** 1.7 µM

**Q.** Which Ki does the source give for Cc1c(-c2ccccc2F)c(=O)n(C[C@H](N)c2ccccc2)c(=O)n1CC1CC1 here?
**A.** 1.1 µM

**Q.** How did the Ki turn out when Cc1c(-c2ccccc2F)c(=O)n(C[C@H](N)c2ccccc2)c(=O)n1Cc1ccccc1F was run?
**A.** 0.02 µM

**Q.** With Cc1c(-c2ccccc2F)c(=O)n(C[C@H](N)c2ccccc2)c(=O)n1CCN(C)C as the compound, how does the Ki read?
**A.** > 10 µM

**Q.** Which Ki does the source give for Cc1c(-c2ccccc2F)c(=O)n(C[C@H](N)c2ccccc2)c(=O)n1Cc1ccccc1Cl here?
**A.** 0.027 µM

**Q.** With Cc1c(-c2ccccc2F)c(=O)n(C[C@H](N)c2ccccc2)c(=O)n1CC(C)C as the compound, how does the Ki read?
**A.** 0.5 µM

**Q.** Cc1c(-c2ccccc2F)c(=O)n(C[C@H](N)c2ccccc2)c(=O)n1Cc1c(F)cccc1Cl was tested. Which Ki did it give?
**A.** 0.0007 µM

**Q.** With Cc1c(-c2ccccc2F)c(=O)n(C[C@H](N)c2ccccc2)c(=O)n1Cc1ccc(F)cc1Cl as the compound, how does the Ki read?
**A.** 0.033 µM

**Q.** For Cc1ccccc1Cn1c(C)c(-c2ccccc2F)c(=O)n(C[C@H](N)c2ccccc2)c1=O, which Ki is on record?
**A.** 0.035 µM

**Q.** With Cc1c(-c2ccccc2F)c(=O)n(C[C@H](N)c2ccccc2)c(=O)n1Cc1ccc(F)cc1 as the compound, how does the Ki read?
**A.** 0.075 µM

Reference: ChEMBL document CHEMBL1147569, “Synthesis and structure-activity relationships of (R)-1-alkyl-3-[2-(2-amino)phenethyl]-5-(2-fluorophenyl)-6-methyluracils as human GnRH receptor antagonists” (Bioorg Med Chem Lett, 2004)
